*1 amine or outer side, *2 acyl side, *3 side chain or, on linkers, in order; H or OH if unused. Where a SMILES comes first, the peptide text is derived from it. Bridges are numbered along the chain shown (N, C = ends). [ ]: non-standard residue; d: D form. The star is where a group is joined. X1 = COc1cc2cc(c1Cl)N(C)C(=O)C[C@H](OC(=O)[C@H](C)N(C)C(=O)CCSSC(C)CCC(=O)*)[C@]1(C)O[C@H]1[C@H](C)[C@@H]1C[C@@](O)(NC(=O)O1)[C@H](OC)/C=C/C=C(\C)C2; 1Nal = N[C@@H](Cc1cccc2ccccc12)C(=O)O; TBMB = c1c(C[*:1])cc(C[*:3])cc1C[*:2]; Tle = CC(C)(C)[C@H](N)C(=O)O; βAla = NCCC(=O)O; Sar = CNCC(=O)O
How the values were obtained:
[1] = target: MT1-MMP (Homo sapiens, UniProt P50281); experiment: Fluorescence polarisation competition binding
Experimental: By means of comparison, a non-reducible BDC was prepared, BT1721, which includes a non-reducible maleimide thioether linkage which is […].

[2] = test system: RPMI2650 xenograft; experiment: In vivo efficacy of BT1718 in RPMI2650 xenograft; parameters: species or system Mus Musculus; key to Best response at 10 mg/kg: CR complete response; PR partial response
Experimental: The objective of this study was to evaluate the in vivo anti-tumor efficacy of BT1718in treatment of HT1080, NCI-H292, NCI-H1975, MDA-MB-231, HCC1806, RPMI2650, HCT-15, HT-29 and SNU-16 xenograft in BALB/c nude mice.
The HT1080, NCI-H292, NCI-H1975, MDA-MB-231, HCC1806, RPMI2650, HCT-15, HT-29 and SNU-16 tumor cells were maintained in vitro as a monolayer culture in medium supplemented with 10% heat inactivated fetal bovine serum at 37° C. in an […]. The tumor cells will be routinely subcultured twice weekly by trypsin-EDTA treatment. The cells growing in an exponential growth phase will be harvested and counted for tumor inoculation.
Mouse was inoculated subcutaneously at the right flank with tumor cells for tumor development. The animals were randomized and treatment was started when the average tumor reaches certain volume for the efficacy study, the inoculating cell amounts and starting tumor size were shown as below in Table 9. The test article administration and the animal numbers in each group were shown in the experimental design in Table 10.
All the procedures related to animal handling, care and the treatment in the study were performed according to the guidelines of the Association for Assessment and Accreditation of Laboratory Animal Care (AAALAC). At the time of routine monitoring, the animals were daily checked for any effects of tumor growth and treatments on normal behavior such as mobility, food and water consumption (by looking only), body weight gain/loss (body weights were measured every day), eye/hair matting and any other abnormal effect as stated in the protocol. Death and observed clinical signs were recorded on the basis of the numbers of animals within each subset.
The major endpoint was to see if the tumor growth could be delayed or mice could be cured. Tumor size was measured three times weekly in two dimensions using a caliper, and the volume was expressed in mm^3 using the formula: V=0.5 a×b^2 where a and b are the long and short diameters of the tumor, respectively. The tumor size was then used for calculations of T/C value. The T/C value (in percent) is an indication of antitumor effectiveness; T and C are the mean volumes of the treated and control groups, respectively, on a given day.
TGI was calculated for each group using the formula: TGI (%)=[1−(Ti−T0)/(Vi−V0)]×100; Ti is the average tumor volume of a treatment group on a given day, T0 is the average tumor volume of the treatment group on the day of treatment start, Vi is the average tumor volume of the vehicle control group on the same day with Ti, and V0 is the average tumor volume of the vehicle group on the day of treatment start.
Summary statistics, including mean and the standard error of the mean (SEM), are provided for the tumor volume of each group at each time point.
Statistical analysis of difference in tumor volume among the groups was conducted on the data obtained at the best therapeutic time point after the final dose.
A one-way ANOVA was performed to compare tumor volume among groups, and when a significant F-statistics (a ratio of treatment variance to the error variance) was obtained, comparisons between groups were carried out with Games-Howell test. All data were analyzed using Prism. P<0.05 was considered to be statistically significant.

Compound: COc1cc2cc(c1Cl)N(C)C(=O)C[C@H](OC(=O)[C@H](C)N(C)C(=O)CCSSC(C)CCC(=O)NCCC(=O)N(C)CC(=O)N(C)CC(=O)N(C)CC(=O)N(C)CC(=O)N(C)CC(=O)N(C)CC(=O)N(C)CC(=O)N(C)CC(=O)N(C)CC(=O)N(C)CC(=O)N[C@@H](C)C(=O)N[C@H]1CSCc3cc4cc(c3)CSC[C@H](NC(=O)[C@@H](C)NC(=O)[C@H](Cc3cccc5ccccc35)NC(=O)[C@H](CCC(=O)O)NC(=O)[C@H](CC(N)=O)NC(=O)[C@@H](C)NC1=O)C(=O)N[C@@H](CCC(=O)O)C(=O)N[C@@H](CC(=O)O)C(=O)N[C@@H](Cc1ccccc1)C(=O)N[C@@H](Cc1ccc(O)cc1)C(=O)N[C@@H](CC(=O)O)C(=O)N[C@@H](C(C)(C)C)C(=O)N[C@H](C(N)=O)CSC4)[C@]1(C)O[C@H]1[C@H](C)[C@@H]1C[C@@](O)(NC(=O)O1)[C@H](OC)/C=C/C=C(\C)C2 (stereo partly shown) [BT1718] ({X1-βAla}-[Sar][Sar][Sar][Sar][Sar][Sar][Sar][Sar][Sar][Sar]AC[dA]NE[1Nal][dA]CEDFYD[Tle]C-NH2; linker 12-18-25 via TBMB (inferred))
- Ki [1]: 0.9 nM
- tumor response ([2]; 10 mg/kg biw): significant tumor inhibition effect, but didn't cause tumor regression
- Body Weight ([2]; 1 mpk biw, day 0): 21.8 ± 0.5 g
- Tumor Volume ([2]; 1 mpk biw, day 0): 146 ± 5 mm^3
- Body Weight ([2]; 1 mpk biw, day 2): 22.1 ± 0.6 g
- Tumor Volume ([2]; 1 mpk biw, day 2): 159 ± 9 mm^3
- Body Weight ([2]; 1 mpk biw, day 4): 22.1 ± 0.7 g
- Tumor Volume ([2]; 1 mpk biw, day 4): 213 ± 23 mm^3
- Body Weight ([2]; 1 mpk biw, day 7): 22.6 ± 0.5 g
- Tumor Volume ([2]; 1 mpk biw, day 7): 362 ± 34 mm^3
- Body Weight ([2]; 1 mpk biw, day 9): 22.8 ± 0.5 g
- Tumor Volume ([2]; 1 mpk biw, day 9): 470 ± 68 mm^3
- Body Weight ([2]; 1 mpk biw, day 11): 22.6 ± 0.6 g
- Tumor Volume ([2]; 1 mpk biw, day 11): 614 ± 96 mm^3
- Body Weight ([2]; 1 mpk biw, day 14): 23.1 ± 0.8 g
- Tumor Volume ([2]; 1 mpk biw, day 14): 833 ± 126 mm^3
- Body Weight ([2]; 3 mpk biw, day 0): 22.1 ± 0.7 g
- Tumor Volume ([2]; 3 mpk biw, day 0): 147 ± 11 mm^3
- Body Weight ([2]; 3 mpk biw, day 2): 21.9 ± 0.8 g
- Tumor Volume ([2]; 3 mpk biw, day 2): 164 ± 20 mm^3
- Body Weight ([2]; 3 mpk biw, day 4): 21.4 ± 0.6 g
- Tumor Volume ([2]; 3 mpk biw, day 4): 220 ± 23 mm^3
- Body Weight ([2]; 3 mpk biw, day 7): 21.9 ± 0.8 g
- Tumor Volume ([2]; 3 mpk biw, day 7): 365 ± 10 mm^3
- Body Weight ([2]; 3 mpk biw, day 9): 21.4 ± 0.7 g
- Tumor Volume ([2]; 3 mpk biw, day 9): 447 ± 18 mm^3
- Body Weight ([2]; 3 mpk biw, day 11): 20.7 ± 0.8 g
- Tumor Volume ([2]; 3 mpk biw, day 11): 576 ± 19 mm^3
- Body Weight ([2]; 3 mpk biw, day 14): 21.0 ± 0.7 g
- Tumor Volume ([2]; 3 mpk biw, day 14): 724 ± 28 mm^3
- Body Weight ([2]; 10 mpk biw, day 0): 22.0 ± 0.3 g
- Tumor Volume ([2]; 10 mpk biw, day 0): 147 ± 7 mm^3
- Body Weight ([2]; 10 mpk biw, day 2): 21.2 ± 0.1 g
- Tumor Volume ([2]; 10 mpk biw, day 2): 151 ± 10 mm^3
- Body Weight ([2]; 10 mpk biw, day 4): 20.6 ± 0.5 g
- Tumor Volume ([2]; 10 mpk biw, day 4): 190 ± 25 mm^3
- Body Weight ([2]; 10 mpk biw, day 7): 21.1 ± 0.4 g
- Tumor Volume ([2]; 10 mpk biw, day 7): 198 ± 38 mm^3
- Body Weight ([2]; 10 mpk biw, day 9): 19.9 ± 0.3 g
- Tumor Volume ([2]; 10 mpk biw, day 9): 165 ± 42 mm^3
- Body Weight ([2]; 10 mpk biw, day 11): 19.2 ± 0.3 g
- Tumor Volume ([2]; 10 mpk biw, day 11): 155 ± 54 mm^3
- Body Weight ([2]; 10 mpk biw, day 14): 19.6 ± 0.7 g
- Tumor Volume ([2]; 10 mpk biw, day 14): 131 ± 49 mm^3
- Best response at 10 mg/kg ([2]; RPMI2650, 10 mg/kg): PR
- TGI ([2]; RPMI2650, 1 mpk, biw, day 14): 4.5%
- Tumor Volume ([2]; RPMI2650, 1 mpk, biw, day 14): 833 ± 126 mm^3
- TGI ([2]; RPMI2650, 3 mpk, biw, day 14): 19.8%
- Tumor Volume ([2]; RPMI2650, 3 mpk, biw, day 14): 724 ± 28 mm^3
- TGI ([2]; RPMI2650, 10 mpk, biw, day 14): 102.1%
- Tumor Volume ([2]; RPMI2650, 10 mpk, biw, day 14): 131 ± 49 mm^3
- Minimally Effective Dose IV BIW ([2]; RPMI2650, dose leading to tumor-stasis): 10 mg/kg

From patent publication US10441663B2, “Methods for treating cancer” (Bicycle Therapeutics Limited, priority 2016, dated 2019)
